In patent US20260242768A1, “ACETYL-COENZYME A CARBOXYLASE MUTANTS” (CIBUS US LLC, priority 2023, published 2026):

Columns and labels:
O. sativa ACCase = assay: Growth of Saccharomyces cerevisiae pseudodiploid acc1Δ strains carrying wild-type or mutant OsACCase plasmids, streaked onto plates with increasing concentrations of clethodim (Examples 5, 7, 10; Tables 8, 12); assay type: cell-based, Oryza sativa; design: key to growth, 0 mM clethodim / growth, 0.025 mM clethodim / growth, 0.1 mM clethodim / growth, 0.25 mM clethodim / growth, 0.5 mM clethodim / growth, 1 mM clethodim: ++ = Strong growth; + = Poor growth; − = No growth; key to relative growth phenotype, 0.5 mM clethodim / relative growth phenotype, 1 mM clethodim / relative growth phenotype, 2 mM clethodim / relative growth phenotype, highGal / relative growth phenotype, lowGal / relative growth phenotype, 0.05 mM clethodim / relative growth phenotype, 0.1 mM clethodim / relative growth phenotype, 0.25 mM clethodim: +++ high growth; ++ moderate growth; + low to negligible growth; (−) some cell debris, no growth; − no growth or cell debris; conditions: for growth, 0 mM clethodim / growth, 0.025 mM clethodim / growth, 0.1 mM clethodim / growth, 0.25 mM clethodim / growth, 0.5 mM clethodim / growth, 1 mM clethodim: Table 12; for growth, 0 mM clethodim: plate with 0 mM clethodim; for growth, 0 mM clethodim / growth, 0.025 mM clethodim / growth, 0.1 mM clethodim / growth, 0.25 mM clethodim / growth, 0.5 mM clethodim / growth, 1 mM clethodim / relative growth phenotype, 0.05 mM clethodim / relative growth phenotype, 0.1 mM clethodim / relative growth phenotype, 0.25 mM clethodim / relative growth phenotype, 0.5 mM clethodim / relative growth phenotype, 1 mM clethodim / relative growth phenotype, 2 mM clethodim: galactose 0.01%; for growth, 0.025 mM clethodim: plate with 0.025 mM clethodim; for growth, 0.1 mM clethodim / relative growth phenotype, 0.1 mM clethodim: plate with 0.1 mM clethodim; for growth, 0.25 mM clethodim / relative growth phenotype, 0.25 mM clethodim: plate with 0.25 mM clethodim; for growth, 0.5 mM clethodim / relative growth phenotype, 0.5 mM clethodim: plate with 0.5 mM clethodim; for growth, 1 mM clethodim / relative growth phenotype, 1 mM clethodim: plate with 1 mM clethodim; for relative growth phenotype, 0.05 mM clethodim: plate with 0.05 mM clethodim; for relative growth phenotype, 2 mM clethodim: plate with 2 mM clethodim; for relative growth phenotype, highGal / relative growth phenotype, lowGal: yeast acc1Δ strain with OsACCase plasmid, no clethodim; for relative growth phenotype, highGal: high galactose plate; for relative growth phenotype, lowGal: low galactose plate; for clethodim tolerance compared to the wild-type (wt) control strain: Example 5
Text: Mutations at position N2097S and V2098A were combined to determine if point mutations at both positions gave increased resistance compared to either single point mutation. Each of these respective mutations (N2097S, V2098A and N2097S/V2098A) were generated by standard methods and introduced into a Saccharomyces cerevisiae pseudodiploid acc1Δ strain with a plasmid containing wild-type O. sativa ACCase gene. Once each of these mutations were introduced by recombination mediated mutagenesis, the OsACCase wild-type plasmid was removed, and mutation strains were confirmed by sequencing. The three strains, along with a series of controls including a WT strain (negative control), an I1781L mutant strain, and a D2078G mutant strain (positive control), were streaked onto plates with increasing concentrations of clethodim. […] These observations argue that N2097S is an enhancer of V2098A tolerance.
Edits at position S1784N and A1785G were combined to determine if point mutations at both of these two positions gave increased resistance compared to either single point mutation. Each of these respective mutations (S1784N, A1785G and S1784N/A1785G) were generated by standard methods and introduced into a Saccharomyces cerevisiae pseudodiploid acc1Δ strain with a plasmid containing wild-type O. sativa ACCase gene. Once each of these mutations were introduced by recombination mediated mutagenesis, the OsACCase wild-type plasmid was removed, and mutation strains were confirmed by sequencing. The three strains, along with a series of controls including a WT strain (negative control), an I1781L mutant strain, a D2078G mutant strain (positive control), and a V2075L mutant strain were streaked onto plates with increasing concentrations of clethodim.
Each of these respective mutations (D2078G, P2083T, D2078G/P2083T) were generated by standard methods and introduced into a Saccharomyces cerevisiae pseudodiploid acc14 strain with a plasmid containing the wild-type O. sativa ACCase gene. Once plasmids bearing each of these mutations, introduced using recombination-mediated mutagenesis, the OsACCase wild-type plasmid was removed, and strains bearing each mutant plasmid were confirmed by sequencing. The three strains, along with a series of controls including a wild-type strain (negative control), an I1781L mutant strain (medium control), and a pre-existing D2078G mutant strain (positive control) were streaked onto plates with increasing concentrations of clethodim.

rice Oryza sativa = assay: Regenerated edited rice shoots established in soil, greenhouse: plant growth, herbicide tolerance, fertility (Example 9); assay type: in vivo
Text: The D2078G mutation was introduced into a native rice Oryza sativa ACCase gene utilizing PEG delivery of CRISPR-Cas and GRONs into protoplasts. Examples of target spacer sequences for sgRNA targeting the rice ACCase gene are shown, but not limited to, those listed in the below Table 9. Sequence information for exemplary GRONs is shown, but not limited to those listed in the below Table 10. Rice protoplasts were isolated from cell suspension cultures initiated from Cypress mature seed-derived embryogenic calli. A non-coding D2078G GRON with RNP (CRISPR-Cas9 protein plus gRNA complex) was introduced into rice protoplasts using PEG-mediated delivery method. Following PEG treatment, protoplasts were cultured in liquid medium and kept stationary in the dark at 26±2° C. for 2 weeks. After 2 weeks, culture plates were gently scraped to release the divided protoplasts from the bottom of the plates and added equal volume of fresh liquid medium. These cultures were transferred on a rotatory shaker and incubated in the dark at 26±2° C. […]
(§1) The results of herbicide rate tolerance field trials of the D2078G/P2083T line can be seen below in Table 11. The edited plants were sprayed with clethodim, and plant injury was visually scored at (7) seven, (14) fourteen, and (28) days after application of the herbicide (“DAA”) on a 0-100% percentage scale for chlorosis of newest leaf-tips and growing points.

D2078G/P2083T line = assay type: in vivo, Oryza sativa; conditions: sprayed with clethodim
Text: as §1

[1] = test system: D2078G/P2083T edited rice line; assay type: in vivo, Oryza sativa; conditions: all clethodim spray rates, nine environments
Text: The clethodim herbicide chosen contained 2.0 pounds active ingredient per gallon. Using a randomized completed block design with three replicates, four clethodim spray rates (5.76, 8.30, 12.10 and 16.00 fluid ounces per acre) were compared to an untreated control (“UTC”). Phytotoxicity rates to access crop response were visually scored (7) seven, (14) fourteen and (28) twenty-eight days after clethodim application (“DAA”) using a 0-100% percentage chlorosis scale. All plots were maintained weed free using additional herbicides tolerant by all rice lines. Yield was collected using a research plot combine to harvest the small plot, and yields were standardized to 12.5% moisture before being converted to a percentage of the untreated control.

[2] = test system: rice (Oryza sativa) plastidal ACCase; assay: Clethodim tolerance of rice ACCase mutations, yeast complementation assay (Examples 1-3); assay type: cell-based; conditions: for clethodim tolerance: ACCase mutation tested with the herbicide clethodim; for effect on clethodim tolerance when combined with D2078G, V2075L or V2098A: combined with either D2078G
Text: Joachimiak M. et al Proc Natl Acad Sci U.S.A. 1997 Sep. 2; 94 (18): 9990-5 and WO/2013/074524 and WO/2013/074524 each describe methods to complement a yeast (Saccharomyces cerevisiae) strain lacking the native acc1 gene with either a wt or mutated form of a chimeric plastidal ACCase gene from a plant such as rice (Oryza sativa). Methods to introduce one or more mutations listed herein into the chimeric ACCase gene and subsequently complement the acc1 lacking yeast strain are well known by an individual skilled in the art. In the art assays are known for measuring tolerance of a mutated plant ACCase gene versus a herbicide that is a member of the aryloxyphenoxypropanoate, cyclohexanedione, and/or phenylpyrazoline families of herbicides such as clethodim, sethoxydim, fluazifop, haloxyfop, quizalofop, and pinoxaden (Joachimiak M. et al Proc Natl Acad Sci U.S.A. 1997 Sep. 2; 94 (18): 9990-5 and WO/2013/074524).
A library of random mutations in the rice (Oryza sativa) plastidal ACCase gene was generated and screened for clethodim tolerant clones using a yeast complementation assay.

[3] = Cha et al., Pesticide Biochemistry and Physiology 111 (2014) 7-13; cited from earlier work
[4] = plates with increasing clethodim, 0.01% galactose

Substance | growth, 0 mM clethodim (O. sativa ACCase) | growth, 0.025 mM clethodim (O. sativa ACCase) | growth, 0.1 mM clethodim (O. sativa ACCase) | growth, 0.25 mM clethodim (O. sativa ACCase) | growth, 0.5 mM clethodim (O. sativa ACCase) | growth, 1 mM clethodim (O. sativa ACCase) | herbicide tolerance (rice Oryza sativa) | clethodim tolerance [2] | relative growth phenotype, 0.05 mM clethodim (O. sativa ACCase) | relative growth phenotype, 0.1 mM clethodim (O. sativa ACCase) | relative growth phenotype, 0.25 mM clethodim (O. sativa ACCase) | relative growth phenotype, 0.5 mM clethodim (O. sativa ACCase) | relative growth phenotype, 1 mM clethodim (O. sativa ACCase) | relative growth phenotype, 2 mM clethodim (O. sativa ACCase) | relative growth phenotype, highGal (O. sativa ACCase) | relative growth phenotype, lowGal (O. sativa ACCase) | clethodim tolerance compared to the wild-type (wt) control strain (O. sativa ACCase; [4]) | effect on clethodim tolerance when combined with D2078G, V2075L or V2098A [2] | other results
D2078G/P2083T: double mutant ACCase; yeast strain and edited rice line | ++ | ++ | ++ | ++ | ++ | + | herbicide tolerance | – | – | – | – | – | – | – | – | – | – | – | meristem necrosis (D2078G/P2083T line): limited meristem necrosis except at the highest rates of herbicide application; yield (D2078G/P2083T line; compared to the untreated control plants): increased yield; plant injury (D2078G/P2083T line; visually scored 7, 14, 28 DAA): low plant injury; plant injury [1]: low plant injury; yield [1]: good yield
V2075L: mutated ACCase, numbering per SEQ ID NO: 2 | – | – | – | – | – | – | – | measurable clethodim tolerance | +++ | +++ | +++ | +++ | + | (−) | +++ | +++ | – | – | growth on clethodim plates (in words) (O. sativa ACCase; [4]): grew to a similar extent as the V2075L mutation
D2078G: mutated ACCase, numbering per SEQ ID NO: 2; positive control strain; also edited rice shoots | ++ | ++ | ++ | ++ | ++ | + | strong herbicide tolerance | measurable clethodim tolerance | +++ | +++ | +++ | +++ | + | (−) | +++ | +++ | did produce tolerance | – | clethodim concentrations on which the strain grew (O. sativa ACCase; Example 7, plates with increasing clethodim, 0.01% galactose): up to 1.0 mM
N2097S: mutated ACCase, numbering per SEQ ID NO: 2 | – | – | – | – | – | – | – | neither the N2097S nor the N2097D single mutations provide detectable clethodim tolerance | – | – | – | – | – | – | – | – | does not produce detectable clethodim tolerance | further increases clethodim tolerance | –
N2097D: mutated ACCase, numbering per SEQ ID NO: 2 | – | – | – | – | – | – | – | neither the N2097S nor the N2097D single mutations provide detectable clethodim tolerance | – | – | – | – | – | – | – | – | – | produces opposing results | tolerance to the fluazifop herbicide [3]: associated with tolerance to the fluazifop herbicide
